# Entries after “also recorded” stand apart in the source; their conditions may differ. Where two headings read alike, the source gives them in different places. Where a SMILES comes first, the peptide text is derived from it. Bridges are numbered along the chain shown (N, C = ends).
# Key:
# Escherichia coli ML-35p = conditions: salt-containing MHB supplemented with 5% FBS, compared with no FBS
# Excerpt: (§1) The results were expressed as the median values determined on the basis of at least three independent experiments performed in triplicate.
# [1] = test system: E. coli ML-35p cytoplasmic membrane; assay: Cytoplasmic membrane permeabilization, ONPG hydrolysis; format: cell-based, Escherichia coli; conditions: at concentrations ≥ MIC values, PBS, 37 °C, ONPG 2.5 mM, OD405
# Procedure: Cationic AMPs perform their antibacterial function by damaging membrane integrity and/or specifically inhibiting intracellular processes. In this study, an effect of the obtained peptides on bacterial cytoplasmic membrane integrity was analyzed with the use of E. coli ML-35p, the strain constitutively expressing β-galactosidase and lacking the functional lactose permease which is necessary for the uptake of o-nitrophenyl-β-D-galactoside (ONPG). When β-galactosidase cleaves ONPG, β-D-galactose and o-nitrophenol are released. The latter is a chromogenic product with absorbance at 405 nm. […] Thus, the rapid membranolytic mode of action seems to be predominant for the HfBRI-28 peptide.
# Figure 4 Kinetics of changes in the E. coli ML35p cytoplasmic membrane permeability measured with the use of ONPG (OD405) hydrolysis caused by the examined peptides. Peptide concentrations (μM) are presented within the dashed box. […]
# To examine the ability of the peptides to affect the barrier function of inner membrane of Gram-negative bacteria, we used the E. coli ML-35p strain constitutively expressing cytoplasmic β-galactosidase but lacking lactose permease. The state of the E. coli ML-35p cytoplasmic membrane was assessed based on its permeability to chromogenic marker o-nitrophenyl-β-D-galactopyranoside (ONPG, AppliChem), which is the β-galactosidase substrate. […]
# [2] = test system: human red blood cells (hRBCs); assay: Hemolysis, hemoglobin release assay; format: cell-based
# Procedure: Figure 3 Biological activity of the peptides towards human cells. (A) Hemolytic effect on human red blood cells (hRBCs) after 2 h incubation (the hemoglobin release assay). (B) Cytotoxicity towards transformed human embryonic kidney cells (HEK293T) after 16 h incubation (the resazurin assay).
# The hemolytic activity of the peptides was tested against the fresh suspension of human red blood cells (hRBC) using the hemoglobin release assay, as described previously. Two experiments were performed with hRBC from blood samples of independent donors. The quantitative data are represented as average means with standard deviations. The cytotoxic effect of the peptides was tested on transformed human embryonic kidney cells (HEK293T) using the resazurin assay. The technique is based on the ability of live cell dehydrogenases to reduce a blue resazurin to pink and fluorescent resorufin. A total of 10^4 cells per well in Dulbecco’s modified Eagle’s medium (DMEM/F12) supplemented with 10% FBS were placed into 96-well plates for 24 h in the CO2-incubator (5% CO2, 37 °C). […] Fluorescence of the formed resorufin was measured with the microplate reader AF2200 (Eppendorf, Germany) using the following channel: λExc = 535 nm, λEm = 595 nm. The fluorescence signal in the wells containing cells cultured without the peptides was assumed to represent 100% cell viability. […]
# RP-HPLC retention time = format: physicochemical; conditions: semi-preparative RP-HPLC, C18 column, linear gradient 5 to 80% (v/v) acetonitrile in water with 0.1% TFA within 50 min
# Procedure: Figure 2 Structure analysis of the novel BRICHOS-related peptides HfBRI-25 and HfBRI-28. (A) Characteristics of the obtained peptides. ^1 Mean Kyte–Doolittle hydrophobicity index (GRAVY) was calculated using the Expasy ProtParam tool. The maximum and minimum values of this index are +4.5 and −4.5 for poly-Ile and poly-Arg sequences, respectively. ^2 Percentage of hydrophobic amino acids was calculated using the APD3 database. ^3 Retention times were measured using semi-preparative reversed-phase high-performance liquid chromatography (RP-HPLC) on a C18 column with a linear gradient from 5 to 80% (v/v) acetonitrile in water containing 0.1% trifluoroacetic acid (TFA) within 50 min. ^4 Molecular masses were calculated by considering the presence of four Cys residues forming two disulfide bonds in the case of HfBRI-25. ^5 Molecular masses were determined experimentally using MALDI-TOF mass spectrometry. (B) Spatial structures of HfBRI-25 and HfBRI-28 were modeled using the AlphaFold algorithm (ColabFold server). The top-rated models, according to predicted local distance difference test (pLDDT) scores, were visualized by the PyMOL software. (C) The CD-spectra of the peptides in water or in the presence of 30 mM DPC micelles. (D) The CONTINLL program was used for CD data analysis. […]
# E. coli ATCC 25922 = conditions: BALB/c mice, n = 5, i.p. infection 10^6 CFU with 2.5% mucin; 10 mg/kg i.p. at 1 h and 4 h after infection; 7 days
# [3] = test system: E. coli K12 SBS 1936 biofilm; assay: Effect on established biofilm, MTT assay; format: cell-based, Escherichia coli; conditions: wide concentration range, 24 h pre-formed biofilm, 16 h treatment in LB, 37 °C
# Procedure: Bacterial biofilms play an important role in UTIs, being responsible for their persistence. Therefore, the eradication of mature biofilms is an extremely challenging task because high concentrations or doses of antibacterial agents are required. Here, the ability of HfBRI-25 to disrupt established biofilms was evaluated as a number of viable bacteria in biofilm using the MTT assay. According to our previous data, E. coli K12 SBS 1936 was chosen as a strong biofilm-producer that can form it in different media.
# E. coli K12 SBS1936 was grown in LB broth overnight at 37 °C and diluted in the same media to obtain 1 × 10^6 CFU/mL. A total of 100 μL of bacterial suspension was added to each well of the 96-well polystyrene plate and grown at 32 °C and 120 rpm for 24 h. The wells were washed twice with sterile water to remove non-adherent cells. In parallel, 100 μL of peptide or ciprofloxacin solutions, serially diluted in LB medium using a separate 96-well polystyrene plate, were added to each well with pre-formed biofilm and incubated at 37 °C and 180 rpm for 16 h. Biofilm viability was assessed by using the MTT reagent (Sigma). […] Absorbance of each well was measured at 570 nm. Bacterial survival was calculated as a percentage relative to samples without antimicrobial agent. […]
# [4] = 25% human serum in PBS pH 7.4, 37 °C, RP-HPLC, ratio estimated from MALDI-TOF MS, two independent experiments
# trypsin = trypsin in 100 mM Tris/HCl buffer (pH 8.0); conditions: 37 °C, up to 16 h
# [5] = 25% human serum in PBS (pH 7.4) from healthy donor; conditions: 37 °C, up to 24 h
# E. coli MDR CI 1057 = conditions: Mueller–Hinton broth supplemented with 0.9% NaCl, 37 °C
# Procedure: Resistance induction experiments were performed using the previously described method. Briefly, on day one, the overnight culture of wild-type bacteria was diluted with the 2× MH broth supplemented with 1.8% NaCl to reach a final cell concentration of 10^6 CFU/mL.
# [6] = test system: E. coli strains with the MCR-1-mediated colistin resistance; assay: MIC against strains with MCR-1-mediated colistin resistance; format: cell-based, Escherichia coli; conditions: two strains with MCR-1-mediated colistin resistance; medium not stated
# Excerpt: as §1
molecule,measurement,setting,value
CC[C@H](C)[C@H](NC(=O)CNC(=O)[C@H](CCCCN)NC(=O)[C@H](Cc1c[nH]c2ccccc12)NC(=O)[C@@H](NC(=O)[C@H](CO)NC(=O)[C@H](CCCCN)NC(=O)[C@H](CC(C)C)NC(=O)[C@H](Cc1c[nH]c2ccccc12)NC(=O)CN)[C@@H](C)CC)C(=O)N[C@@H](CCCCN)C(=O)N[C@@H](CCCCN)C(=O)N[C@@H](C)C(=O)N[C@H](C(=O)N[C@@H](CCCCN)C(=O)N[C@@H](Cc1c[nH]c2ccccc12)C(=O)N[C@H](C(=O)N[C@@H](CC(C)C)C(=O)N[C@@H](CCCNC(=N)N)C(=O)N[C@@H](Cc1c[nH]cn1)C(=O)NCC(=O)N[C@H](C(=O)N[C@@H](Cc1ccc(O)cc1)C(=O)N[C@H](C(=O)N[C@@H](CCCNC(=N)N)C(=O)N[C@H](C(=O)N[C@H](C(=O)N[C@@H](Cc1ccccc1)C(=O)O)[C@@H](C)O)[C@@H](C)CC)C(C)C)C(C)C)C(C)C)C(C)C [HfBRI-28] (H-GWLKSIWKGIKKAVKWVLRHGVYVRITF-OH),Increase in MIC in the presence of serum,Escherichia coli ML-35p,four- to eight-fold
same,Membrane damage,[1],effectively damaged membranes
same,Hemolytic effect on human red blood cells,[2],strong hemolytic effect
same,RP-HPLC Retention Time,RP-HPLC retention time,40.5 min
"O=C(O)c1cn(C2CC2)c2cc(N3CCNCC3)c(F)cc2c1=O [ciprofloxacin, reference compound]",Survival / therapeutic efficacy,E. coli ATCC 25922,survival of all mice
same,Anti-biofilm efficiency (bacterial viability inside established biofilm),[3],high efficiency at a wide concentration range
"CC[C@H](C)[C@@H]1NC(=O)[C@H](Cc2c[nH]c3ccccc23)NC(=O)[C@H](C(C)C)NC(=O)[C@@H]2CSSC[C@H](NC(=O)[C@H](CCCNC(=N)N)NC(=O)[C@H](CCCNC(=N)N)NC(=O)[C@H](C(C)C)NC(=O)[C@H](CCCNC(=N)N)NC(=O)[C@H](CCCNC(=N)N)NC(=O)CNC(=O)[C@H](CC(N)=O)NC(=O)[C@H](C(C)C)NC(=O)[C@H](CO)NC1=O)C(=O)N[C@@H](Cc1c[nH]c3ccccc13)C(=O)NCC(=O)N[C@@H](CO)C(=O)NCC(=O)N[C@H](C(=O)O)CSSC[C@H](NC(=O)CNC(=O)[C@@H](N)CCCNC(=N)N)C(=O)N[C@@H](Cc1ccccc1)C(=O)N2 [form “b”] (H-RGCFCVWISVNGRRVRRCWGSGC-OH; disulfide 3-23, 5-18; N-terminus and C-terminus assumed)","a/b (%), ratio of the peptide forms in serum",[4]; time 0 h,0%
same,"a/b (%), ratio of the peptide forms in serum",[4]; time 1 h,61%
same,"a/b (%), ratio of the peptide forms in serum",[4]; time 3 h,94%
same,"a/b (%), ratio of the peptide forms in serum",[4]; time 24 h,100%
SPRGCFCVWISVNGRRVRRCWGSGC,fragment found,trypsin,"(4–16), major; also recorded: (19–25), major"
same,cleaved bond,[5],"Pro2-R3, major, 1 h"
polymyxin B [reference compound],Initial MIC value before resistance selection,E. coli MDR CI 1057,0.125 µM
same,MIC against MCR-1 colistin-resistant strains,[6],2 µM
